# In US12246068B2, “Enzymatically activatable peptide-redox modulator conjugates and use thereof” (BRANDEIS UNIVERSITY, priority 2017, dated 2025):
# Where a SMILES comes first, the peptide text is derived from it. [ ]: non-standard residue; d: D form. The star is where a group is joined. X1 = O=C(CCC[P+](c1ccccc1)(c1ccccc1)c1ccccc1)*; d(pY) = N[C@H](Cc1ccc(OP(=O)(O)O)cc1)C(=O)O; pY = N[C@@H](Cc1ccc(OP(=O)(O)O)cc1)C(=O)O; NBD = O=[N+]([O-])c1ccc(*)c2nonc12; Cbz = O=C(OCc1ccccc1)*; βAla = NCCC(=O)O; CH2F = FC*
# Columns and labels:
# [1] = tested on: selected Saos2 cell line; assay: MTT assay on selected Saos2 cells after five weeks stimulation; format: cell-based, human
# Protocol: (§1) For the MTT Assay, all cells were seeded in a 96-well plate with the density of 1*10^4 cells per-well (total medium volume of 100 μL). 24 hours post seeding, the solutions with a serial of concentrations (5 concentrations) of different precursors were added to each well. Cells without the treatment of the precursors were used as the control. At designated time (24/48/72 hours), 10 μL MTT solution (5 mg/mL) was added to each well and incubated at 37° C. for another 4 h, and then 100 μL of SDS-HCl solution was added to stop the reduction reaction and dissolve the purple formazan. The absorbance of each well at 595 nm was measured by a multimode microplate reader. The cytotoxicity assay was performed three times and the average value of the three measurements was taken.
# Based on the above mechanism of cell death showing that L-1P (or D-1P) activates multiple death signaling pathways, it is believed that cancer cells unlikely would be able to evolve resistance toward this multiple targeting strategy. […] Such a plasticity should minimize the path to drug resistance. […]
# [2] = tested on: Saos2 cells; assay: MTT cell viability assay, Saos2; format: cell-based, human; details: for IC50 against Saos2 cells / IC50: unstimulated Saos2; for IC50: read-out: IC50 against Saos2 cells; for cytotoxicity to Saos2 cells: formed from the precursor by exogenous ALP, concentrations up to 200 μM; for cytotoxicity against Saos2 cell: even at 500 μM
# Protocol: (§2) Saos2, HeLa, HepG2, T98G, MCF-7 and HS-5 cells were purchased from American-type Culture Collection (ATCC, USA). Saos2 cells were cultured in Macyo's 5A medium supplemented with 15% v/v fetal bovine serum, 100 U/mL penicillin and 100 μg/mL streptomycin. HeLa, HepG2, T98G, MCF-7 cells were cultured in MEM Medium supplemented with 10% v/v fetal bovine serum, HS-5 cells were cultured in Dulbecco's Modified Eagle's medium (DMEM) supplemented with 10% v fetal bovine serum (FBS), 100 U/mL penicillin and 100 μg/mL streptomycin. All cells were cultured at 37° C. in a humidified atmosphere of 5% CO2.
# as §1
# To investigate the cellular response to all the precursors, an MTT (3-(4,5-dimethylthiazol-2-yl)-2,5-diphenyl tetrazolium bromide) assay (Gerlier et al., J. Immunol. Methods 94:57 (1986), which is hereby incorporated by reference in its entirety) was first used to examine the viability of human osteosarcoma cells (Saos2, which expresses high level ALP (Farley et al., Metabolism 40:664 (1991), which is hereby incorporated by reference in its entirety)) cultured with the precursors. As a control, the viability of normal human bone marrow stromal cells (HS5) that express low level of ALP on cell surface was also examined (Zhou et al., Chem 1:246 (2016), which is hereby incorporated by reference in its entirety). […] In the presence of exogenous ALP, L-1P (or D-1P) turns into L-1 (or D-1), which is innocuous to Saos2 cells at the concentrations up to 200 μM. […] To investigate the retention of L-1 (or D-1) in the Saos2 cells, the cells were incubated with L-1P (D-1P, 50 μM) for different times. […] On the contrary, the concentration of D-1 decreases little after 6 h incubation. Moreover, the intracellular concentration of D-1 is 3.5 fold of that of L-1 at 6 h incubation, but the ratio increases to 10 fold at 24 h incubation (FIG. 8B).
# Three kinds of established ALP inhibitors were used: L-phenylalanine (L-Phe) (Borgers, M. J., Histochem. Cytochem. 21:812 (1973), which is hereby incorporated by reference in its entirety), an efficient uncompetitive inhibitor of placental alkaline phosphatase (PLAP) levamisole, a well-known uncompetitive inhibitor of tissue-nonspecific alkaline phosphatase (TNAP) (Borgers, M. J., Histochem. Cytochem. 21:812 (1973), which is hereby incorporated by reference in its entirety) and CinnGEL 2Me (Zhu et al., Cancer Res. 67:10129 (2007), which is hereby incorporated by reference in its entirety), an inhibitor of protein tyrosine phosphatase (PTP1B) that localizes at the cytoplasmic face of the endoplasmic reticulum. […] Moreover, the PTP1B inhibitor (i.e., CinnGEL 2Me) is unable to rescue the cells, supporting the mechanism in FIG. 1 that EISA on the cell surface is the key processes for converting L-1P and D-1P to L-1 and D-1, respectively. To further confirm the role of ALPs on cell surface, the precursors were incubated together with ALP, which serves as an exogenous enzyme. The addition of ALP almost eliminates the cytotoxicity of the precursors. […]
# [3] = tested on: HS5 cells; assay: MTT cell viability assay, HS5; format: cell-based, human; details: 100 μM
# Protocol: as §2
# as §1, with “taken. […]” for “taken.”
# [4] = tested on: ALP; assay: ALP catalyzed dephosphorylation of the precursors; format: biochemical; details: alkaline phosphatase (ALP), isolated enzyme; substrate 0.1 wt %, ALP 0.1 U/mL, 37° C.; read-out: t1/2 of ALP catalyzed dephosphorylation (converted)
# Protocol: After obtaining all the precursors in Example 1, their behaviors were evaluated for EISA in vitro by using TEM and static light scattering (SLS) to examine the nanostructures formed before and after the addition of ALP into the solutions of the precursors. […] As a contrast, D-1P (50 μM) forms slightly more regular fibrous structures with diameter of 8±2 nm, which then interact with each other to form dense 2D/3D networks. […] After 24 h, the percentages of enzymatic dephosphorylation of D-1P and L-1P are about 90% and 80%, respectively. […] After being formed by dephosphorylation, L-1 and D-1 form different nanostructures. […] Similar to L-1, D-1 forms aggregated hollow colloids with a larger mean diameter (106±2 nm) and slightly thicker layers (thickness of 6±2 nm). L-2P or D-2P (50 μM) forms amorphous aggregates after dissolving in PBS buffer (pH=7.4) (FIG. 5). While the addition of ALP converts L-2P to L-2 to form uniform nanofibers with diameter of 9±2 nm, the enzymatic conversion of D-2P to D-2 results in nanoscale aggregates with diameter of 16±2 nm. […] As a charged, steric-hindered motif being connected to the peptide backbone via a relatively flexible linker, TPP disrupts intermolecular packing to disfavor the formation of long nanofibers, but it promotes interparticle interaction to favor polymorphic aggregates before and after enzymatic dephosphorylation. […]
# [5] = tested on: T1, D-1P (NBD-βA-FFpYK, D enantiomer, with TPP on the ε-amino group of lysine)
# T1 sequence: XFFXK
# [6] = tested on: T2, L-1P (NBD-βA-FFpYK, L enantiomer, with TPP on the ε-amino group of lysine)
# T2 sequence: XFFXK
# [7] = tested on: T3, L-2P (NBD-βA-FFpYK, L enantiomer, with acetyl on the ε-amine of lysine)
# T3 sequence: XFFXK
# [8] = tested on: T4, D-2P (NBD-βA-FFpYK, D enantiomer, with acetyl on the ε-amine of lysine)
# T4 sequence: XFFXK
# [9] = 100 μM, 48 h, with levamisole (1 mM)
# [10] = 100 μM, 48 h, without inhibitor
# [11] = 200 μM, 48 h, with levamisole (1 mM)
# [12] = 200 μM, 48 h, without inhibitor
# [13] = co-incubated with the targeting motif TPP (3), 48 h
compound,measurement,setting,value
O=C(CCC[P+](c1ccccc1)(c1ccccc1)c1ccccc1)NCCCC[C@@H](NC(=O)[C@@H](Cc1ccc(OP(=O)(O)O)cc1)NC(=O)[C@@H](Cc1ccccc1)NC(=O)[C@@H](Cc1ccccc1)NC(=O)CCNc1ccc([N+](=O)[O-])c2nonc12)C(=O)O [D-1P] ({NBD-βAla}-[dF][dF][d(pY)][dK](X1)-OH),IC50,"[1]; cells selected by five weeks stimulation of D-1P (10 to 50 μM), read-out: IC50 against Saos2 cells after five weeks stimulation",35.2 µM
same,cell viability of Saos2 cells,[2]; [9],66.0%
same,cell viability of Saos2 cells,[2]; [10],11.5%
same,cell viability of Saos2 cells,[2]; [11],53.3%
same,cell viability of Saos2 cells,[2]; [12],1.8%
same,IC50 against Saos2 cells,[2]; 48 h,57.4 ± 2.5 µg/mL
same,IC50,[2]; 48 h,46 ± 2 µM
same,cytotoxicity against HS5 cells,[3],almost innocuous
same,half-life at 0.1 wt %,[4],33 min
O=C(CCC[P+](c1ccccc1)(c1ccccc1)c1ccccc1)NCCCC[C@@H](NC(=O)[C@@H](Cc1ccc(O)cc1)NC(=O)[C@@H](Cc1ccccc1)NC(=O)[C@@H](Cc1ccccc1)NC(=O)CCNc1ccc([N+](=O)[O-])c2nonc12)C(=O)O [D-1] ({NBD-βAla}-[dF][dF][dY][dK](X1)-OH),cytotoxicity to Saos2 cells,[2],innocuous
CC(=O)NCCCC[C@@H](NC(=O)[C@@H](Cc1ccc(OP(=O)(O)O)cc1)NC(=O)[C@@H](Cc1ccccc1)NC(=O)[C@@H](Cc1ccccc1)NC(=O)CCNc1ccc([N+](=O)[O-])c2nonc12)C(=O)O [D-2P] ({NBD-βAla}-[dF][dF][d(pY)][dK](Ac)-OH),cytotoxicity against Saos2 cell,"[2]; by itself, 48 h",hardly exhibits cytotoxicity
same,cytotoxicity against Saos2 cell,[2]; [13],hardly exhibits cytotoxicity
O=C(CCC[P+](c1ccccc1)(c1ccccc1)c1ccccc1)NCCCC[C@H](NC(=O)[C@H](Cc1ccc(OP(=O)(O)O)cc1)NC(=O)[C@H](Cc1ccccc1)NC(=O)[C@H](Cc1ccccc1)NC(=O)CCNc1ccc([N+](=O)[O-])c2nonc12)C(=O)O [L-1P] ({NBD-βAla}-FF[pY]K(X1)-OH),cell viability of the selected cells,"[1]; 50 μM, 48 h, after five weeks stimulation",20.5%
same,cell viability of unstimulated Saos2,"[2]; 50 μM, 48 h",71.7%
same,cell viability of Saos2 cells,[2]; [9],65.3%
same,cell viability of Saos2 cells,[2]; [10],21.6%
same,cell viability of Saos2 cells,[2]; [11],50.5%
same,cell viability of Saos2 cells,[2]; [12],2.1%
same,IC50 against Saos2 cells,[2]; 48 h,76.1 ± 2.5 µg/mL
same,IC50,[2]; 48 h,61 ± 2 µM
same,cytotoxicity against HS5 cells,[3],almost innocuous
same,half-life at 0.1 wt %,[4],68.4 min
O=C(CCC[P+](c1ccccc1)(c1ccccc1)c1ccccc1)NCCCC[C@H](NC(=O)[C@H](Cc1ccc(O)cc1)NC(=O)[C@H](Cc1ccccc1)NC(=O)[C@H](Cc1ccccc1)NC(=O)CCNc1ccc([N+](=O)[O-])c2nonc12)C(=O)O [L-1] ({NBD-βAla}-FFYK(X1)-OH),cytotoxicity to Saos2 cells,[2],innocuous
CC(=O)NCCCC[C@H](NC(=O)[C@H](Cc1ccc(OP(=O)(O)O)cc1)NC(=O)[C@H](Cc1ccccc1)NC(=O)[C@H](Cc1ccccc1)NC(=O)CCNc1ccc([N+](=O)[O-])c2nonc12)C(=O)O [L-2P] ({NBD-βAla}-FF[pY]K(Ac)-OH),cytotoxicity against Saos2 cell,"[2]; by itself, 48 h",hardly exhibits cytotoxicity
same,cytotoxicity against Saos2 cell,[2]; [13],hardly exhibits cytotoxicity
"COC(=O)C[C@H](NC(=O)[C@H](C)NC(=O)[C@@H](NC(=O)OCc1ccccc1)C(C)C)C(=O)CF [zVAD-fmk, reference compound] (Cbz-Val-Ala-Asp(OMe)-CH2F)",toxicity on Saos2 cells,"[2]; 45 μM, by itself",no toxicity
alkaline phosphatase,percentage of enzymatic dephosphorylation after 24 h,[5],"the percentages of enzymatic dephosphorylation of D-1P and L-1P are about 90% and 80%, respectively"
same,"t1/2 of ALP catalyzed dephosphorylation (substrate 0.1 wt %, ALP 0.1 U/mL)",[5],"The t1/2 was determined to be 0.55 h and 1.14 h for D-1P and L-1P, respectively"
same,percentage of enzymatic dephosphorylation after 24 h,[6],"the percentages of enzymatic dephosphorylation of D-1P and L-1P are about 90% and 80%, respectively"
same,"t1/2 of ALP catalyzed dephosphorylation (substrate 0.1 wt %, ALP 0.1 U/mL)",[6],"The t1/2 was determined to be 0.55 h and 1.14 h for D-1P and L-1P, respectively"
same,enzymatic conversion (dephosphorylation) seen by TEM,[7],the addition of ALP converts L-2P to L-2 to form uniform nanofibers
same,enzymatic conversion (dephosphorylation) seen by TEM,[8],the enzymatic conversion of D-2P to D-2 results in nanoscale aggregates
